# In patent EP1891957A1 (Sloan-Kettering Institute for Cancer Research, priority 1996, dated 1998):
# Where “and” joins values, the source holds several entries; their conditions need not be identical. Equal values may be shown once. Read-outs that look alike come from different tables or passages of the source.
# Key:
# [1] = dogs, 3 mg/kg i.v.
# in vivo [2] = details: rat, iv
# in vivo [3] = details: dog, iv
# MDA468 = test: Cytotoxicity, 3 hour pulse-exposure, MDA468; details: Homo sapiens
# SKLC-16 = test: Cytotoxicity, 3 hour pulse-exposure, SKLC-16; details: Homo sapiens
# ZR-75-1 = test: Cytotoxicity, 3 hour pulse-exposure, ZR-75-1; details: Homo sapiens, ZR-75-1, 3 h
# SK-BRIII = test: Cytotoxicity, 3 hour pulse-exposure, SK-BRIII; details: Homo sapiens
# human LX-1 lung cancer = details: LX-1 xenograft, schedule and doses as Example 2; for Average Tumor Diameter (mm): nude mice
# human A549 lung cancer = details: A549 xenograft, schedule and doses as Example 2; for Average Tumor Diameter (mm): nude mice
# Source text: Example 2 was repeated using xenografts of human A549 lung cancer in nude mice.
# [4] = test system: human MX-1 mammary carcinoma; test: Xenografts of human MX-1 mammary carcinoma in nude mice; details: MX-1 xenograft; for Average Tumor Diameter (mm): nude mice, once a day for five days starting three days after implantation, 10-propargyl-10dAM 3 mg/kg, MTX 2 mg/kg, EDX 1.5 mg/kg, measured 14 days after start of treatment; for Complete Regressions: mice with no measurable tumor 14 days after start of treatment / mice treated; for Complete Regressions / Cures: same doses; for Cures: tumor free mice three weeks after cessation of therapy / mice treated
SMILES,Average Tumor Diameter (mm) (human LX-1 lung cancer),Complete Regressions (human LX-1 lung cancer),Cures (human LX-1 lung cancer),Average Tumor Diameter (mm) (human A549 lung cancer),Complete Regressions (human A549 lung cancer),Cures (human A549 lung cancer),Average Tumor Diameter (mm) [4],Complete Regressions [4],Cures [4],other results
"C#CCC(Cc1cnc2nc(N)nc(N)c2n1)c1ccc(C(=O)N[C@@H](CCC(=O)O)C(=O)O)cc1 (stereo partly drawn) [10-propargyl-10dAM, 10-Propargyl-10-deazaaminopterin]",–,–,–,–,–,–,–,–,–,"mice died (B6D2F1 mice; 400 mg/kg i.p. QWX3, days 19, 20, 23 and 24): four out of five; mice died (B6D2F1 mice; 600 mg/kg i.p. QWX3, days 9, 18, 19 and 21): four out of five; animals died (CD rats; 100 mg/kg i.v. QWX3, by day 23): one out of the five; rats died (CD rats; 150 mg/kg i.v. QWX3, days 18, 20 and 23): three out of the five; rats died (CD rats; 200 mg/kg i.v. QWX3, days 12, 14, 15, 20 and 20): all five; rats died (CD rats; 300 mg/kg i.v. QWX3, days 11, 11, 12, 12 and 14): all five; LD10 (CD rats; i.v. QWX3, conservative estimate, median-effect plot): about 75 mg/kg; metabolite (retention time 6.3 min) as part of the total urinary 10-propargyl-10dAM ([1]; urine at 1 hr): < 0.31%; metabolite (retention time 6.3 min) as part of the total urinary 10-propargyl-10dAM ([1]; urine at 4 hr): < 3.5%; LD50 (in vivo [2]): ~110 mg/kg; LD50 (in vivo [3]): ~8 mg/kg"
"CCC(Cc1cnc2nc(N)nc(N)c2n1)c1ccc(C(=O)N[C@@H](CCC(=O)O)C(=O)O)cc1 (stereo partly drawn) [EDX, edatrexate]",4.3 ± 2 mm,3/10,1/10,6.8 ± 2 mm,0/5,0/5,2.2 ± 1.1 mm,6/20,2/20,IC50 (MDA468): 0.38 ± 0.05 µM; IC50 (SKLC-16): 0.26 ± 0.03 µM; IC50 (ZR-75-1): 0.86 ± 0.1 µM; IC50 (SK-BRIII): 0.99 ± 0.15 µM
"CN(Cc1cnc2nc(N)nc(N)c2n1)c1ccc(C(=O)N[C@@H](CCC(=O)O)C(=O)O)cc1 [MTX, methotrexate]",9.2 ± 2 mm,0/10,0/10,8.3 ± 2 mm,0/5,0/5,7.6 ± 0.8 mm,no regressions and 0/10,0/10,–
